Each structure is given as a SMILES string.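 Growth conditions: 96-well plates. Treatment: test compound, 48 hours, 5 concentrations. Analysis: linear interpolation between bracketing concentrations; unreached endpoints set to highest concentration. GI50 = concentration required for 50% inhibition of growth. TGI: concentration producing complete growth inhibition.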 Bounds are passed on as bounds.

Among the test systems are A549 NSCLC; EKVX NSCLC; HCT-15 colon; HL-60(TB) leukemia; NCI-H522 lung; OVCAR-3 ovarian; OVCAR-5 ovarian; SK-MEL-28 melanoma; SW-620 colon; DU-145 prostate.
Common to all, as to assay: growth of human tumour cells (NCI), 48 h

On to `CC(C)(C)C1CCP(=O)(c2ccccc2)CC1` (configuration not stated), for which the TGI with A549 NSCLC, with EKVX NSCLC, in the experiment on HCT-15 colon, in the experiment with HL-60(TB) leukemia, in the experiment with NCI-H522 lung and in the experiment with OVCAR-3 ovarian was greater than 100 µM each time. Besides, the TGI in the experiment with OVCAR-5 ovarian, with SK-MEL-28 melanoma and in the experiment on SW-620 colon was greater than 100 µM in each case.

Take `COc1cc2c(cc1OCc1ccccc1)N=C[C@@H]1C[C@@H](F)CN1C2=O`: the GI50 with A549 NSCLC is 0.829 µM; with DU-145 prostate it was 0.144 µM; with EKVX NSCLC, 0.73 µM; in the experiment with HCT-15 colon, 0.282 µM; with OVCAR-3 ovarian, 0.315 µM; with OVCAR-5 ovarian it was 0.298 µM. In the experiment with SK-MEL-28 melanoma, the GI50 was 0.748 µM. Further, the TGI came to 6.98 µM with A549 NSCLC; 1.66 µM in the experiment on DU-145 prostate; 2.29 µM with EKVX NSCLC; 0.893 µM in the experiment on HCT-15 colon; 0.187 µM in the experiment on NCI-H522 lung; 0.787 µM in the experiment on OVCAR-3 ovarian. Moreover, the results for the TGI in the experiment with OVCAR-5 ovarian, in the experiment with SK-MEL-28 melanoma and in the experiment with SW-620 colon were 12.1 µM, 13.7 µM and 1.21 µM, respectively.

In the case of `Cc1ccc(C)c(NC(=O)C(=O)CC(=O)c2cccc3ccccc23)c1`, the TGI with A549 NSCLC, in the experiment on EKVX NSCLC, with HCT-15 colon, with HL-60(TB) leukemia, in the experiment with NCI-H522 lung and in the experiment on OVCAR-3 ovarian was greater than 100 µM throughout. Also, the TGI in the experiment with OVCAR-5 ovarian, with SK-MEL-28 melanoma and in the experiment on SW-620 colon was greater than 100 µM in each case.

For the compound `C=C(CS(=O)(=O)c1ccccc1)C(=O)OCC`, the TGI is 37.1 µM in the experiment on A549 NSCLC; 39.9 µM with EKVX NSCLC; 35 µM with HCT-15 colon; 12.9 µM in the experiment with NCI-H522 lung; 26.5 µM in the experiment on OVCAR-3 ovarian; 34.8 µM in the experiment on OVCAR-5 ovarian. In addition, the TGI in the experiment with SK-MEL-28 melanoma is 28.9 µM; in the experiment on SW-620 colon it was 29.2 µM.

In the case of `CN(C(=O)C12C3C4C1C1C2C3C41C(=O)N(C)C(C)(C)C)C(C)(C)C` (configuration not stated), the TGI in the experiment with A549 NSCLC, in the experiment with EKVX NSCLC, in the experiment on HCT-15 colon, in the experiment on HL-60(TB) leukemia, in the experiment on NCI-H522 lung and in the experiment on OVCAR-3 ovarian was greater than 50 µM each time. Besides, the TGI in the experiment with SK-MEL-28 melanoma and in the experiment on SW-620 colon was greater than 50 µM in each case.

In the case of `NC(=O)c1ccccc1NC(=O)C(=O)Nc1n[nH]c(N)n1`, the TGI in the experiment with A549 NSCLC, in the experiment with EKVX NSCLC, in the experiment on HCT-15 colon, with HL-60(TB) leukemia, in the experiment with NCI-H522 lung and with OVCAR-3 ovarian was greater than 100 µM throughout. In addition, the TGI in the experiment with OVCAR-5 ovarian and in the experiment with SW-620 colon was greater than 100 µM each time.

Regarding `Cc1ccc(S(=O)(=O)Nc2cccc(C)c2C)cc1`, the TGI was greater than 100 µM with A549 NSCLC; greater than 100 µM in the experiment with EKVX NSCLC; greater than 100 µM in the experiment with HCT-15 colon; 87.1 µM in the experiment with HL-60(TB) leukemia; greater than 100 µM in the experiment with OVCAR-3 ovarian; greater than 100 µM with OVCAR-5 ovarian. Moreover, the TGI was 81.5 µM in the experiment on SK-MEL-28 melanoma and greater than 100 µM with SW-620 colon.

Consider `O=S1c2ccccc2N=C(c2ccc3ccccc3c2)CC1c1ccccc1F` (configuration not stated), for which the TGI in the experiment on A549 NSCLC, in the experiment on EKVX NSCLC, with HCT-15 colon, with HL-60(TB) leukemia, in the experiment on NCI-H522 lung and in the experiment on OVCAR-3 ovarian was greater than 100 µM each time. Further, the TGI with OVCAR-5 ovarian, in the experiment on SK-MEL-28 melanoma and in the experiment on SW-620 colon was greater than 100 µM throughout.

Regarding `COc1cc(-c2ccccc2)c(OC)cc1CCl`, the TGI in the experiment on A549 NSCLC, in the experiment with EKVX NSCLC, in the experiment on HCT-15 colon, with HL-60(TB) leukemia, in the experiment on NCI-H522 lung and with OVCAR-3 ovarian was greater than 100 µM in each case. Also, the TGI in the experiment with OVCAR-5 ovarian and in the experiment with SW-620 colon was greater than 100 µM in each case.

For the compound `Cc1nn2c(=O)n(-c3cccc(-n4nnc5c(-c6ccccc6)c(C)nn5c4=O)c3C)nnc2c1-c1ccccc1`, the TGI with A549 NSCLC is greater than 100 µM; in the experiment on EKVX NSCLC it was greater than 100 µM; in the experiment on HCT-15 colon it was 63.8 µM; in the experiment on HL-60(TB) leukemia, 87.9 µM; in the experiment with NCI-H522 lung, 33.2 µM; with OVCAR-3 ovarian, 44.3 µM. Moreover, the TGI in the experiment on OVCAR-5 ovarian was greater than 100 µM; in the experiment with SW-620 colon it was 48.4 µM.

`COC(=O)[C@H]1CC(=O)C=C2CCCC21` (some centres not stated): the TGI in the experiment on A549 NSCLC, in the experiment with EKVX NSCLC, in the experiment with HCT-15 colon, with HL-60(TB) leukemia, in the experiment on NCI-H522 lung and in the experiment on OVCAR-3 ovarian was greater than 100 µM in each case. Besides, the TGI in the experiment with SK-MEL-28 melanoma and in the experiment on SW-620 colon was greater than 100 µM each time.

For the compound `CN=c1ss/c(=N\C(=S)N(C)C)n1C1CCCCC1`, the TGI in the experiment on A549 NSCLC was greater than 31.6 µM; in the experiment on EKVX NSCLC it was greater than 31.6 µM; with HCT-15 colon, greater than 31.6 µM; with HL-60(TB) leukemia, greater than 100 µM; in the experiment with NCI-H522 lung, greater than 31.6 µM; with OVCAR-3 ovarian, greater than 31.6 µM. For the same compound, the TGI in the experiment on OVCAR-5 ovarian, in the experiment with SK-MEL-28 melanoma and with SW-620 colon was greater than 31.6 µM in each case.

As to `CC1=C(C(=O)Nc2cccc(C(F)(F)F)c2)C(c2ccccc2F)C(C(=O)Nc2cccc(C(F)(F)F)c2)=C(C)N1`, the TGI in the experiment with A549 NSCLC turned out to be 19.7 µM; in the experiment with EKVX NSCLC it was 17.5 µM; in the experiment with HL-60(TB) leukemia, 7.98 µM; in the experiment with NCI-H522 lung, 17.5 µM; in the experiment on OVCAR-3 ovarian it was 17.8 µM; in the experiment with OVCAR-5 ovarian, 24.5 µM. Further, the TGI came to 23.7 µM in the experiment with SK-MEL-28 melanoma and 22.7 µM in the experiment with SW-620 colon.

For the compound `O=c1c2cc(Br)ccc2[nH]c(=S)n1-c1ccccc1`, the TGI in the experiment on A549 NSCLC, with EKVX NSCLC, with HCT-15 colon, with OVCAR-3 ovarian, with OVCAR-5 ovarian and with SK-MEL-28 melanoma was greater than 100 µM throughout. The same compound had a TGI in the experiment on SW-620 colon greater than 100 µM.

For `O=c1[nH]cc(CO)c(=O)[nH]1`, the GI50 in the experiment on A549 NSCLC, in the experiment on HCT-15 colon, in the experiment with HL-60(TB) leukemia, in the experiment on NCI-H522 lung, in the experiment on OVCAR-3 ovarian and with OVCAR-5 ovarian was greater than 100 µM each time. Further, the GI50 in the experiment on SK-MEL-28 melanoma and in the experiment with SW-620 colon was greater than 100 µM in each case. The TGI in the experiment on A549 NSCLC, in the experiment with HCT-15 colon, in the experiment on HL-60(TB) leukemia, with NCI-H522 lung, in the experiment with OVCAR-3 ovarian and in the experiment on OVCAR-5 ovarian was greater than 100 µM throughout. In addition, the TGI in the experiment with SK-MEL-28 melanoma and in the experiment on SW-620 colon was greater than 100 µM each time.

With `CC(C)(C)C1CCC(CI)(N=[N+]=[N-])CC1` (configuration not stated), the TGI in the experiment on A549 NSCLC, in the experiment with EKVX NSCLC, with HCT-15 colon, with HL-60(TB) leukemia, in the experiment on NCI-H522 lung and with OVCAR-3 ovarian was greater than 100 µM throughout. The TGI in the experiment with OVCAR-5 ovarian and with SW-620 colon was greater than 100 µM in each case.

With `CC1(C)C(=O)CCC(=O)C(C)(C)C2=CC=C(O2)C(C)(C)C(=O)CCC(=O)C(C)(C)C2=CC=C1O2`, the TGI in the experiment with A549 NSCLC, in the experiment on EKVX NSCLC, with HCT-15 colon, in the experiment on HL-60(TB) leukemia, in the experiment on NCI-H522 lung and in the experiment with OVCAR-3 ovarian was greater than 100 µM in each case. Also, the TGI in the experiment with OVCAR-5 ovarian, with SK-MEL-28 melanoma and in the experiment on SW-620 colon was greater than 100 µM each time.

`CC(N)CN.CC(N)CN.[Cl-].[O]=[Os+2]=[O]` (configuration not stated): the GI50 in the experiment on A549 NSCLC is greater than 100 µM; in the experiment on EKVX NSCLC it was greater than 100 µM; in the experiment on HCT-15 colon, greater than 100 µM; with NCI-H522 lung it was 30.9 µM; with OVCAR-3 ovarian, 81.4 µM; with OVCAR-5 ovarian, greater than 100 µM. The GI50 in the experiment on SK-MEL-28 melanoma is greater than 100 µM; in the experiment on SW-620 colon, 69 µM. The TGI in the experiment on A549 NSCLC, with EKVX NSCLC, with HCT-15 colon, in the experiment on NCI-H522 lung, with OVCAR-3 ovarian and in the experiment with OVCAR-5 ovarian was greater than 100 µM throughout. The TGI with SK-MEL-28 melanoma and in the experiment with SW-620 colon was greater than 100 µM in each case.

On to `COc1ccc(/C=c2\sc3nnc(CCC(=O)Nc4cccc(C(F)(F)F)c4)n3c2=O)cc1`, for which the TGI is greater than 100 µM in the experiment with A549 NSCLC; greater than 100 µM in the experiment with EKVX NSCLC; greater than 100 µM with HCT-15 colon; greater than 71.6 µM in the experiment with HL-60(TB) leukemia; greater than 100 µM in the experiment with OVCAR-3 ovarian; greater than 100 µM with OVCAR-5 ovarian. For the same compound, the TGI in the experiment with SK-MEL-28 melanoma and with SW-620 colon was greater than 100 µM throughout.

Turning to `COC(=O)CSc1n[nH]c(-c2ccccc2)n1`, the TGI with A549 NSCLC, with EKVX NSCLC, with HCT-15 colon, with HL-60(TB) leukemia, with NCI-H522 lung and in the experiment on OVCAR-3 ovarian was greater than 100 µM throughout. The TGI in the experiment with OVCAR-5 ovarian, in the experiment with SK-MEL-28 melanoma and with SW-620 colon was greater than 100 µM in each case.

With `CN(C)CCCNC(=O)c1cccc2nc3ccccc3nc12`, the TGI in the experiment on A549 NSCLC is greater than 78.7 µM; in the experiment on EKVX NSCLC it was greater than 77.4 µM; in the experiment on HCT-15 colon, greater than 82.4 µM; in the experiment on NCI-H522 lung it was greater than 100 µM; with OVCAR-3 ovarian, greater than 59.5 µM; with OVCAR-5 ovarian, 54.3 µM. Besides, the TGI with SK-MEL-28 melanoma was 38.5 µM; in the experiment with SW-620 colon, greater than 54.9 µM.

The values above are taken from PubChem BioAssay (NCI).
